This passage reports IC50 and inhibition results from patent US20250368649A1, “TETRAHYDROPYRIDOPYRIMIDINE PAN-KRAS INHIBITORS” (Mirati Therapeutics, Inc., priority 2022, published 2025).

For orientation: IC50 means the point on the concentration scale where inhibition reaches its midpoint. Low readings indicate greater potency, high ones weaker potency. For orientation: inhibition means the relative decrease from the control value, in per cent.

For one experiment, the system named is ASPC1 cells. The experiment can be described thus: Inhibition of KRas-mediated phosphorylation of ERK (Cisbio HTRF pERK), ASPC1 cells. Type of experiment: cell-based. Conditions: Homo sapiens, ASPC1, 3 h, AsPC-1 cells; 3 hr compound incubation; Cisbio pERK HTRF. A general note: TR-FRET usually uses a lanthanide donor and a delayed reading to cut background.
The target of another experiment is KRas G12R (Homo sapiens, UniProt P01116, G12R). The experiment can be described thus: biochemical. Conditions: Binding to KRas (IC50 nM) G12R, TR-FRET displacement, KRas G12R.
Chain of KRas G12R (P01116 1-169 isoform P01116-2 G12R): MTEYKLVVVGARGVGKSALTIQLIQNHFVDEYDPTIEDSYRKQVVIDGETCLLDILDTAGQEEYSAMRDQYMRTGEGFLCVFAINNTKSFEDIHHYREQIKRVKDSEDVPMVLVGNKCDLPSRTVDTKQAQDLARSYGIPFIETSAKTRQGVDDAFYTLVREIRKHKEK
Another experiment has as its target KRas G12D (Homo sapiens, UniProt P01116, G12D). The experiment can be described thus: biochemical. Particulars: Binding to KRas (IC50 nM) G12D, TR-FRET displacement, KRas G12D.
In the next experiment the target is KRas G12V (Homo sapiens, UniProt P01116, G12V). The experiment can be described thus: biochemical. Particulars: Binding to KRas (IC50 nM) G12V, TR-FRET displacement, KRas G12V.
Chain of KRas G12V (P01116 1-169 isoform P01116-2 G12V): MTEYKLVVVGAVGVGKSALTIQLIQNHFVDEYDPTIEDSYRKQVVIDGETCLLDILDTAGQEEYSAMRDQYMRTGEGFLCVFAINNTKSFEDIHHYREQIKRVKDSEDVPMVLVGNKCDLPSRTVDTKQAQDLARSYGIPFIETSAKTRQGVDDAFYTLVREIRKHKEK
The test system of the next experiment is H727 cells. The experiment can be described thus: Inhibition of KRas-mediated phosphorylation of ERK (Cisbio HTRF pERK), H727 cells. Type of experiment: cell-based. Particulars: Homo sapiens, NCI-H727, 3 h, 3 hr compound incubation, Cisbio pERK HTRF.
In the next experiment the test system is A549 cells. The experiment can be described thus: Inhibition of KRas-mediated phosphorylation of ERK (Cisbio HTRF pERK), A549 cells. Particulars: Homo sapiens, single point at 100 nM, 3 hrs compound incubation. Type of experiment: cell-based.
The subject of a further experiment is H358 cells. The experiment can be described thus: Inhibition of KRas-mediated phosphorylation of ERK (Cisbio HTRF pERK), H358 cells. Type of experiment: cell-based. Conditions: Homo sapiens, NCI-H358, single point at 100 nM, 3 hrs compound incubation.

Where only a bound is given, the exact number is not on record here.

Chain of KRas G12D (P01116 1-169 isoform P01116-2 G12D): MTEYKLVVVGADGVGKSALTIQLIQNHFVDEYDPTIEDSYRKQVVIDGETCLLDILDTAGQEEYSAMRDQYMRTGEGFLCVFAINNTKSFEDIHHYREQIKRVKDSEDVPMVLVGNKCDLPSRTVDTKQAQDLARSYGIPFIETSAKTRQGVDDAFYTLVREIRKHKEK

Take `CCCCCCCCCCN(C)C(=O)c1cc2n(n1)CCCN(c1nc(OC[C@@]34CCCN3C[C@H](F)C4)nc3c1CCN(c1cc(O)cc4ccc(F)c(CC)c14)C3)C2` [Example 266, N-decyl-5-(7-(8-ethyl-7-fluoro-3-hydroxynaphthalen-1-yl)-2-(((2R,7aS)-2-fluorohexahydro-1H-pyrrolizin-7a-yl)methoxy)-5,6,7,8-tetrahydropyrido[3,4-d]pyrimidin-4-yl)-N-methyl-5,6,7,8-tetrahydro-4H-pyrazolo[1,5-a][1,4]diazepine-2-carboxamide]: the concentration for half-maximal inhibition (IC50) was 787 nM in the experiment with ASPC1 cells; 254 nM on KRas G12R; 133 nM at KRas G12D; 104 nM on KRas G12V; 1760 nM with H727 cells.

With `CCCCCCCCCCNC(=O)c1cc2n(n1)CCCN(c1nc(OC[C@@]34CCCN3C[C@H](F)C4)nc3c1CCN(c1cc(O)cc4ccc(F)c(CC)c14)C3)C2` [Example 267, N-decyl-5-(7-(8-ethyl-7-fluoro-3-hydroxynaphthalen-1-yl)-2-(((2R,7aS)-2-fluorohexahydro-1H-pyrrolizin-7a-yl)methoxy)-5,6,7,8-tetrahydropyrido[3,4-d]pyrimidin-4-yl)-5,6,7,8-tetrahydro-4H-pyrazolo[1,5-a][1,4]diazepine-2-carboxamide], the IC50 in the experiment on ASPC1 cells was determined as 3620 nM; at KRas G12R, 256 nM; at KRas G12D, 148 nM; on KRas G12V it was 123 nM; in the experiment on H727 cells it was 3950 nM.

For `CCc1c(F)ccc2cc(O)cc(N3CCc4c(nc(OC[C@@]56CCCN5C[C@H](F)C6)nc4N4CCOCC(P(C)(C)=O)C4)C3)c12` (stereo partly drawn) [Example 281, (4-(7-(8-ethyl-7-fluoro-3-hydroxynaphthalen-1-yl)-2-(((2R,7aS)-2-fluorotetrahydro-1H-pyrrolizin-7a(5H)-yl)methoxy)-5,6,7,8-tetrahydropyrido[3,4-d]pyrimidin-4-yl)-1,4-oxazepan-6-yl)dimethylphosphine oxide], the IC50 in the experiment with ASPC1 cells is more than 10000 nM; at KRas G12R, 11 nM; on KRas G12D, 31 nM; at KRas G12V, 6 nM; in the experiment on H727 cells, 4440 nM.

On to `CCc1c(F)ccc2cc(O)cc(N3CCc4c(nc(OC[C@@]56CCCN5C[C@H](F)C6)nc4N4CCCn5nc(N(C(C)C)S(C)(=O)=O)cc5C4)C3)c12` [Example 285, N-(5-(7-(8-ethyl-7-fluoro-3-hydroxynaphthalen-1-yl)-2-(((2R,7aS)-2-fluorohexahydro-1H-pyrrolizin-7a-yl)methoxy)-5,6,7,8-tetrahydropyrido[3,4-d]pyrimidin-4-yl)-5,6,7,8-tetrahydro-4H-pyrazolo[1,5-a][1,4]diazepin-2-yl)-N-isopropylmethanesulfonamide], for which the IC50 was more than 10000 nM in the experiment on ASPC1 cells; 773 nM on KRas G12R; 563 nM on KRas G12D; 886 nM on KRas G12V; more than 10000 nM with H727 cells.

In the case of `CCc1c(F)ccc2cc(O)cc(N3CCc4c(nc(OC[C@@]56CCCN5C[C@H](F)C6)nc4N4CCNc5cc(Br)ccc5C4)C3)c12` [Example 348, 4-(4-(8-bromo-1,2,3,5-tetrahydro-4H-benzo[e][1,4]diazepin-4-yl)-2-(((2R,7aS)-2-fluorotetrahydro-1H-pyrrolizin-7a(5H)-yl)methoxy)-5,8-dihydropyrido[3,4-d]pyrimidin-7(6H)-yl)-5-ethyl-6-fluoronaphthalen-2-ol], the IC50 in the experiment with ASPC1 cells is more than 10000 nM; at KRas G12R it was 43000 nM; on KRas G12D it was 83300 nM; at KRas G12V, 38500 nM; with H727 cells, more than 10000 nM.

As for `CCc1c(F)ccc2cc(O)cc(N3CCc4c(nc(OC[C@@]56CCCN5C[C@H](F)C6)nc4NCC4NC(=O)NC4=O)C3)c12` (stereo partly drawn) [Example 377, 5-(((7-(8-ethyl-7-fluoro-3-hydroxynaphthalen-1-yl)-2-(((2R,7aS)-2-fluorohexahydro-1H-pyrrolizin-7a-yl)methoxy)-5,6,7,8-tetrahydropyrido[3,4-d]pyrimidin-4-yl)amino)methyl)imidazolidine-2,4-dione], the IC50 with ASPC1 cells was 2340 nM; at KRas G12R, 4 nM; on KRas G12D, 4 nM; on KRas G12V, less than 2 nM; with H727 cells, 677 nM.

Regarding `CCc1c(F)ccc2cc(O)cc(N3CCc4c(nc(OC[C@@]56CCCN5C[C@H](F)C6)nc4NCc4cc(C(=O)N(C)C)nn4C)C3)c12` [Example 399, 5-(((7-(8-ethyl-7-fluoro-3-hydroxynaphthalen-1-yl)-2-(((2R,7aS)-2-fluorohexahydro-1H-pyrrolizin-7a-yl)methoxy)-5,6,7,8-tetrahydropyrido[3,4-d]pyrimidin-4-yl)amino)methyl)-N,N,1-trimethyl-1H-pyrazole-3-carboxamide], the IC50 in the experiment with ASPC1 cells came to 513 nM; on KRas G12R, 8 nM; at KRas G12D, 3 nM; on KRas G12V it was 4 nM; in the experiment on H727 cells it was 896 nM.

On to `CCc1c(F)ccc2cc(O)cc(N3CCc4c(nc(OC[C@@]56CCCN5C[C@H](F)C6)nc4N4CCCC5(CCNC5=O)C4)C3)c12` (stereo partly drawn) [Example 401, 7-(7-(8-ethyl-7-fluoro-3-hydroxynaphthalen-1-yl)-2-(((2R,7aS)-2-fluorohexahydro-1H-pyrrolizin-7a-yl)methoxy)-5,6,7,8-tetrahydropyrido[3,4-d]pyrimidin-4-yl)-2,7-diazaspiro[4.5]decan-1-one], for which the IC50 stood at 1730 nM in the experiment on ASPC1 cells; 10 nM on KRas G12R; 59 nM at KRas G12D; 22 nM at KRas G12V; 1410 nM with H727 cells.

As for `CCc1c(F)ccc2cc(O)cc(N3CCc4c(nc(OC[C@@]56CCCN5C[C@H](F)C6)nc4N4CCCc5occc5C4)C3)c12` [Example 423, 4-(4-(7,8-dihydro-4H-furo[3,2-c]azepin-5(6H)-yl)-2-(((2R,7aS)-2-fluorohexahydro-1H-pyrrolizin-7a-yl)methoxy)-5,6-dihydropyrido[3,4-d]pyrimidin-7(8H)-yl)-5-ethyl-6-fluoronaphthalen-2-ol], the half-maximal inhibitory concentration (IC50) in the experiment on ASPC1 cells amounted to 4950 nM; at KRas G12R it was 26 nM; on KRas G12D it was 396 nM; on KRas G12V, 42 nM; with H727 cells, 1970 nM.

`O=C1NCC2(CCCN(c3nc(OC[C@@]45CCCN4C[C@H](F)C5)nc4c3CCN(c3c5ccccc5cc5[nH]ncc35)C4)C2)N1` (stereo partly drawn) [Example 473, 7-(7-(1H-benzo[f]indazol-4-yl)-2-(((2R,7aS)-2-fluorohexahydro-1H-pyrrolizin-7a-yl)methoxy)-5,6,7,8-tetrahydropyrido[3,4-d]pyrimidin-4-yl)-1,3,7-triazaspiro[4.5]decan-2-one]: the concentration for half-maximal inhibition (IC50) with ASPC1 cells is 5120 nM; in the experiment with H727 cells it was 4100 nM. For the same compound, the inhibition at 0.1 µM with A549 cells and in the experiment on H358 cells was 12% throughout.

In the case of `O=C1NCC12CCCN(c1nc(OC[C@@]34CCCN3C[C@H](F)C4)nc3c1CCN(c1cc(O)cc4ccc(F)c(Br)c14)C3)C2` (stereo partly drawn) [Example 482, 6-(7-(8-bromo-7-fluoro-3-hydroxynaphthalen-1-yl)-2-(((2R,7aS)-2-fluorohexahydro-1H-pyrrolizin-7a-yl)methoxy)-5,6,7,8-tetrahydropyrido[3,4-d]pyrimidin-4-yl)-2,6-diazaspiro[3.5]nonan-1-one], the IC50 in the experiment on ASPC1 cells is 1460 nM; at KRas G12R it was 5 nM; on KRas G12D, 3 nM; on KRas G12V, less than 2 nM; in the experiment with H727 cells, 1200 nM.

For the compound `CCc1c(F)ccc2cc(O)cc(N3CCc4c(nc(N5CC(N)C5)nc4N4CCC[C@@](C)(O)C4)C3)c12` [Example 486, (R)-1-(2-(3-aminoazetidin-1-yl)-7-(8-ethyl-7-fluoro-3-hydroxynaphthalen-1-yl)-5,6,7,8-tetrahydropyrido[3,4-d]pyrimidin-4-yl)-3-methylpiperidin-3-ol], the IC50 at KRas G12R was 1160 nM; at KRas G12D, 755 nM; at KRas G12V, 886 nM.

Turning to `CCc1c(F)ccc2cc(O)cc(N3CCc4c(nc(OC[C@@]56CCCN5C[C@H](F)C6)nc4N4CCCC5(CCCC5)C4)C3)c12` [Example 489, 5-ethyl-6-fluoro-4-(2-(((2R,7aS)-2-fluorohexahydro-1H-pyrrolizin-7a-yl)methoxy)-4-(7-azaspiro[4.5]decan-7-yl)-5,6-dihydropyrido[3,4-d]pyrimidin-7(8H)-yl)naphthalen-2-ol], the values for the IC50 on KRas G12R, at KRas G12D and at KRas G12V were 553 nM, 761 nM and 702 nM, respectively.

As for `CCc1c(F)ccc2cc(O)cc(N3CCc4c(nc(OC[C@@]56CCCN5C[C@H](F)C6)nc4N4CCCC5(C4)NC(=O)N(C)C5=O)C3)c12` (stereo partly drawn) [Example 644, 7-(7-(8-ethyl-7-fluoro-3-hydroxynaphthalen-1-yl)-2-(((2R,7aS)-2-fluorotetrahydro-1H-pyrrolizin-7a(5H)-yl)methoxy)-5,6,7,8-tetrahydropyrido[3,4-d]pyrimidin-4-yl)-3-methyl-1,3,7-triazaspiro[4.5]decane-2,4-dione], the 50% inhibitory concentration (IC50) on KRas G12R was 13 nM; at KRas G12D it was 16 nM; on KRas G12V, 14 nM.

Turning to `CCc1cccc2cccc(N3CCc4c(nc(OCC5(CN(C)C)CC5)nc4N4CCCC(c5nccn5C)C4)C3)c12` (centres unmarked) [Example 692, 1-(1-(((7-(8-ethylnaphthalen-1-yl)-4-(3-(1-methyl-1H-imidazol-2-yl)piperidin-1-yl)-5,6,7,8-tetrahydropyrido[3,4-d]pyrimidin-2-yl)oxy)methyl)cyclopropyl)-N,N-dimethylmethanamine], the IC50 at KRas G12D was found to be 16100 nM; on KRas G12V it was 8850 nM.
